Ratio, inhibition and IC50 data for 3 molecules are collected here from ChEMBL document CHEMBL2311287, “Selective inhibition of extracellular thioredoxin by asymmetric disulfides” (J Med Chem, 2013).

Assay [1] relates to T1, Thioredoxin (Homo sapiens), P10599 [W31A].
T1 sequence (whole entry): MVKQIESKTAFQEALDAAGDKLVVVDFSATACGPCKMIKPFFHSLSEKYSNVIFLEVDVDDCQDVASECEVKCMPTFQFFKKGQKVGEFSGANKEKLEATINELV
Description: Inhibition of human thioredoxin W31A mutant.

For assay [2], the target named is T2, Thioredoxin (Homo sapiens) (UniProt P10599).
T2 sequence (whole entry): T1 sequence (whole entry) with A31W
The assay is described as follows: Inhibition of wild type human thioredoxin by insulin turbidity assay. To be noted: concentration not given here.

For a further assay, the target named is T3, Thioredoxin (Homo sapiens, UniProt P10599).
T3 sequence (P10599 whole entry): T1 sequence (whole entry) with A31W
Description: Inhibition of human recombinant thioredoxin-mediated TG2 activation expressed in T84 cells assessed as blockade of 5-biotinamidopentylamine incorporation after 3 hrs by streptavidin-HRP/TMB absorbance assay.

For assay [3], the system named is Transglutaminase 2 (Homo sapiens). Description: Inhibition of human recombinant thioredoxin-mediated TG2 activation expressed in T84 cells assessed as blockade of 5-biotinamidopentylamine incorporation at 25 uM after 3 hrs by fluorescence microscopic analysis.

Structures are written as SMILES. Residue numbers refer to the chain shown, from its start. pIC50: −log10 of the molar value. The source made the active and inactive calls. The calls are words filed in the database; no cut-off is given here.

The inhibition is the relative decrease from the control value, in per cent. As a reminder, the pIC50 is the negative decadic logarithm of the IC50, by convention in mol/L.

For `CCC(C)SSc1nc2ccccc2[nH]1` (centres undefined), the Ratio in assay [1] was found to be 1.42 µM⁻¹ min⁻¹. The inhibition in assay [2] amounted to 78%.
In the case of `CCC(C)SSc1ncc[nH]1` (centres undefined) [PX-12], the negative-log IC50 (pIC50) on Thioredoxin was 5.68.
Turning to `O=C(NC[C@@H]1CC(Br)=NO1)[C@@H]1CCCN1C(=O)OCc1cnc2ccccc2c1`, the inhibition result in assay [3] was “Active”.
